Laboratory results: US20260109729A1, “RUTHENIUM COMPLEXES FOR INHIBITION OF GALECTINS, METHOD OF THEIR PREPARATION, AND USE THEREOF” (priority 2023, published 2026)
Where two headings read alike, the source gives them in different places.

Tests used:
[1] = target: T1, human galectin-1 (Homo sapiens, UniProt P09382); assay: Fluorescence anisotropy competitive inhibition assay, galectin 1; format: binding; set-up: His6-GST (N, cleaved yes); made in house; host or cells: E. coli BL21 RILP; conditions: for Ki: Ki calculated from IC50 with online calculator, read-out: Ki against human galectin-1; for Ki / IC50: average and standard deviation; for affinity to galectin-1 compared with the fluorescent probe: exact Ki not determinable, given as possible range; for IC50: protein 500 nM, probe 100 nM, at least three measurements, read-out: IC50 against human galectin-1 under measured condition
Procedure: Analytical Biochemistry 2004, 334 (1), 36-47, page 39, paragraph “Fluorescence Polarization”. As a competitive fluorescent probe, the compound 3,3′-dideoxy-3-[4-(fluorescein-5-yl-carbonylamino-methyl)-1H-1,2,3-triazol-1-yl]-3′-[4-(3-fluorophenyl)-1H-1,2,3-triazol-1-yl]-1,1′-sulfanediyl-di-β-D-galactopyranoside was used in the measurements. Fluorescence anisotropy was measured using a Tecan Spark multimode microplate reader equipped with fluorescence polarization filters and black polystyrene round-bottomed microtiter plates (Corning®, 384 wells) in samples with a final volume of […]. The samples were incubated in the dark for 30 minutes before measurement.
The Kd values were obtained using nonlinear regression performed by GraphPad Prism software (version 10.0.2, GraphPad, USA) for direct ligand-protein interaction using the formula: A=A0+(Amax−A0)×([G]/(Kd+[G])), where A0 is the anisotropy of the probe in the absence of galectin, Amax is the maximum achieved anisotropy of the probe with increasing galectin concentration, [G] is the total galectin concentration in a measured sample, and A is the measured anisotropy of the measured sample. […] Raw anisotropy data from the reader were plotted against concentration using GraphPad Prism software (version 10.0.2, GraphPad, USA) and nonlinear fitting “[Inhibitor]vs. response—Variable slope (four parameters)” analysis was used to calculate the IC50 values (half-maximal inhibitory concentration) for each titration. The IC50 values from each titration experiment were then used to calculate the inhibition constant Ki using an online calculator (http://websites.umich.edu/-shaomengwanglab/software/calc_ki/index.html). The used model is described in the following publication: Development and optimization of a binding assay for the XIAP BIR3 domain using fluorescence polarization, Analytical Biochemistry 2004, 332 (2), 261-273.

[2] = target: T2, human galectin-3-CRD (Homo sapiens, UniProt P17931); assay: Fluorescence anisotropy competitive inhibition assay, galectin 3; format: binding; conditions: average and standard deviation; for Ki: Ki calculated from IC50 with online calculator, read-out: Ki against human galectin 3-CRD; for IC50: protein 50 nM, probe 5 nM, at least three measurements, read-out: IC50 against human galectin-3-CRD under measured condition
T2 construct: human galectin-3-CRD; fused on or other part: N-terminal His6-GST tag, cleaved off by TEV protease before the fluorescence anisotropy test
Procedure: As a competitive fluorescent probe, the compound 3,3′-dideoxy-3-[4-(fluorescein-5-yl-carbonylamino-methyl)-1H-1,2,3-triazol-1-yl]-3′-[4-(3-fluorophenyl)-1H-1,2,3-triazol-1-yl]-1,1′-sulfanediyl-di-β-D-galactopyranoside was used in the measurements. Fluorescence anisotropy was measured using a Tecan Spark multimode microplate reader equipped with fluorescence polarization filters and black polystyrene round-bottomed microtiter plates (Corning®, 384 wells) in samples with a final volume of […]. The samples were incubated in the dark for 30 minutes before measurement.
The Kd values were obtained using nonlinear regression performed by GraphPad Prism software (version 10.0.2, GraphPad, USA) for direct ligand-protein interaction using the formula: A=A0+(Amax−A0)×([G]/(Kd+[G])), where A0 is the anisotropy of the probe in the absence of galectin, Amax is the maximum achieved anisotropy of the probe with increasing galectin concentration, [G] is the total galectin concentration in a measured sample, and A is the measured anisotropy of the measured sample. […] Raw anisotropy data from the reader were plotted against concentration using GraphPad Prism software (version 10.0.2, GraphPad, USA) and nonlinear fitting “[Inhibitor]vs. response—Variable slope (four parameters)” analysis was used to calculate the IC50 values (half-maximal inhibitory concentration) for each titration. The IC50 values from each titration experiment were then used to calculate the inhibition constant Ki using an online calculator (http://websites.umich.edu/-shaomengwanglab/software/calc_ki/index.html).

[3] = test system: SK-OV-3; assay: MTT cytotoxicity assay, SK-OV-3; format: cell-based, human; conditions: ovarian carcinoma, 24-72 hours incubation
Procedure: (§1) This assay is based on the reduction of the yellow soluble 3-[4,5-dimethylthiazol-2-yl]-2,5-diphenyl tetrazolium bromide (MTT) to insoluble formazan (blue star-shaped crystals). The reaction takes place on the mitochondrial membrane of living cells. Subsequently, the formazan is dissolved by adding a strong detergent (dimethyl sulfoxide, DMSO), and the color is evaluated spectrophotometrically at a wavelength of 570-595 nm.
(§2) Human cell lines derived from ovarian carcinoma (A2780, SK-OV-3), breast carcinoma (MDA-MB-231, MCF-7), and non-tumor epithelial line MCF-10A were used for the cytotoxicity test. Additionally, a cell line derived from embryonic kidney cells HEK293 was used as a control. A2780 cells were cultured in RPMI 1640 medium (Sigma-Aldrich) containing 10% fetal bovine serum (Biochrom AG), 2 mM L-glutamine (Gibco), and 100 U/mL penicillin/streptomycin (Biosera). SK-OV-3 cells were cultured in McCoy's medium (Sigma-Aldrich) containing 10% fetal bovine serum (Biochrom AG) and 100 U/mL penicillin/streptomycin (Biosera). […] After dissolving the blue crystals, the absorbance was measured in the wells of the plate on an ELISA Reader (Multidetection reader Infinititte M1000 PRO (Tecan Group Ltd, CH)) at a wavelength of 570-595 nm. Evaluation of IC50 as the inflection point of the curve of measured absorbance values using the GraphPad Prism software (version 10.0.2, GraphPad, USA).

[4] = test system: HEK-293; assay: MTT cytotoxicity assay, HEK-293; format: cell-based, human; conditions: embryonic kidney control cell line, 24-72 hours incubation
Procedure: as §1, §2

[5] = test system: MCF-10A; assay: MTT cytotoxicity assay, MCF-10A; format: cell-based, human; conditions: non-tumor epithelial line, 24-72 hours incubation
Procedure: as §1, §2

[6] = test system: A2780; assay: MTT cytotoxicity assay, A2780; format: cell-based, human; conditions: ovarian carcinoma, 24-72 hours incubation
Procedure: as §1, §2

[7] = target: T3, human galectin-3 (Homo sapiens, UniProt P17931); assay: Competitive ELISA with immobilized asialofetuin, galectin 3; format: binding; conditions: His6-GST-Gal-3, average and standard deviation, at least 3 measurements, read-out: IC50 against human galectin-3
T3 construct: made in house; host or cells: E. coli BL21 RILP
Procedure: (§3) An immobilized competitive ligand, asialofetuin (ASF), a glycoprotein terminated with LacNAc residues interacting with galectins, was used. Wells of microtiter plates (96-well BRAND plates-F-pureGrade, BRAND, Germany) were coated with ASF ([…] in 0.1M CO3^2−/HCO3^− buffer pH 9-9.8; 50 μL per well) and incubated overnight in a humid chamber at […]. Subsequently, wells were washed with 1×200 μL PBS (137 mM NaCl, 2.7 mM KCl, 8 mM Na2HPO4, and 2 mM KH2PO4, pH 7.4). PBS-Tween washes were performed 3×5 min following each subsequent step. The wells were blocked with 3% BSA in PBS (200 μL per well) and incubated for 1 hour at room temperature. Increasing concentrations of inhibitors in PBS buffer were mixed with His6-GST-Gal-3 or His6-GST-Gal-1 (target concentration 5 or 10 μM) and incubated in wells with ASF for 1 hour. […] The signal intensity was measured spectrophotometrically using the Multidetection reader Infinititte M1000 PRO (Tecan Group Ltd, CH) at 450 nm and corresponds to the amount of bound galectin. The respective inhibitory constant (IC50) was calculated from nonlinear regression (dose-response inhibition slope) of sigmoidal curves using GraphPad Prism software (version 10.0.2, GraphPad, USA).

[8] = test system: MCF-7; assay: MTT cytotoxicity assay, MCF-7; format: cell-based, human; conditions: breast carcinoma, 24-72 hours incubation
Procedure: as §1, §2

[9] = test system: MDA-MB-231; assay: MTT cytotoxicity assay, MDA-MB-231; format: cell-based, human; conditions: breast carcinoma, 24-72 hours incubation
Procedure: as §1, §2

[10] = target: T1, human galectin-1; conditions: read-out: IC50 against human galectin-1; competitive ELISA, immobilized asialofetuin, His6-GST-Gal-1; average and standard deviation, at least 3 measurements
Procedure: as §3

T1 sequence (P09382 whole entry): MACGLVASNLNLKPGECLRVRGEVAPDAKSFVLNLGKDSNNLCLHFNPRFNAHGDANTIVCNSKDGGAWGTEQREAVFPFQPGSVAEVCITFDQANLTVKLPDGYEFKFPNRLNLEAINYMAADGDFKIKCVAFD
T2 sequence (P17931 114-250 limits assumed): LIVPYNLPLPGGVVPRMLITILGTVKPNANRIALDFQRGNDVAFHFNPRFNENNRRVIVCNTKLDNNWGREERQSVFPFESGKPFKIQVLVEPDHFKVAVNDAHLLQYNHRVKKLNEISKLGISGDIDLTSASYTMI
T3 sequence (P17931 whole entry): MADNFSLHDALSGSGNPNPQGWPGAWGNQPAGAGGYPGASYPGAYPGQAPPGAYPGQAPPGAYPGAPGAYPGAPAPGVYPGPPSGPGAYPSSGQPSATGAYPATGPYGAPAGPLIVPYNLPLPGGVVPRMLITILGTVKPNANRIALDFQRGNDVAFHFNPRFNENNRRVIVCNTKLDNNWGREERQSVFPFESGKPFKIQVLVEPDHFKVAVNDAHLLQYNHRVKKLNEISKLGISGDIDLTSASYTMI

Row | Substance | Ki [1] [nM] | affinity to galectin-1 compared with the fluorescent probe [1] | IC50 [1] [nM] | Ki [2] [µM] | IC50 [2] [µM] | IC50 [3] [µM] | IC50 [4] [µM] | IC50 [5] [µM] | IC50 [6] [µM] | IC50 [7] [µM] | IC50 [8] [µM] | IC50 [9] [µM] | IC50 [10] [nM]
1 | Ruthenium Complex with Benzene and Cl Ligands and PF6^− Counterions [Compound 7] | < 5 | significantly better affinity to galectin-1 than used fluorescent probe | 307 ± 33 | 3.54 ± 0.32 | 16.8 ± 1.5 | – | – | – | – | – | – | – | –
2 | Ruthenium Complex with Hexamethylbenzene and Cl Ligands and PF6^− Counterions [Compound 8] | 114 ± 11 | – | 498 ± 26 | 43.4 ± 13 | 205 ± 63 | – | – | – | – | – | – | – | –
3 | Ruthenium Complex with p-Cymene and Cl Ligands and BF4^− Counterions [Compound 5] | < 5 | significantly better affinity to galectin-1 than used fluorescent probe | 187 ± 4 | 10.7 ± 1.9 | 50.7 ± 9 | – | – | – | – | – | – | – | –
4 | Ruthenium Complex with p-Cymene and Cl Ligands and Cl^− Counterions [Compound 4] | 18 ± 11 | – | 328 ± 18 | 21.2 ± 2.7 | 100 ± 12 | > 200 | 158 ± 42 | > 200 | > 200 | 87.2 ± 4.4 | > 200 | > 200 | 26 ± 4
5 | Ruthenium Complex with p-Cymene and Cl Ligands and PF6^− Counterions [Compound 6] | < 5 | significantly better affinity to galectin-1 than used fluorescent probe | 231 ± 17 | 15.2 ± 0.2 | 71.7 ± 0.84 | > 200 | 174 ± 28 | – | – | 104 ± 38 | – | 141 ± 8 | –
6 | Ruthenium Complex with p-Cymene and I Ligands and I^− Counterions [Compound 9] | 37 ± 9 | – | 370 ± 16 | 19 ± 3.3 | 89.8 ± 16 | – | – | – | – | – | – | – | –
7 | Ruthenium Complex with p-Cymene and I Ligands and PF6^− Counterions [Compound 10] | 23 | – | 347 ± 13 | 15.6 ± 1.8 | 73.5 ± 8.1 | – | – | – | – | – | – | – | –
